According to US7981443B2, “Method of treating sleep disordered breathing using topiramate” (priority 2000, dated 2011):

Key:
[1] = system: obstructive sleep apnoea (OSA); experiment: Double-blind, placebo controlled cross-over study of topiramate in patients with light to moderate OSA; type: in vivo
Method: A double-blind, placebo controlled cross-over study of topiramate was undertaken in 2 patients with light to moderate OSA (A/H index, 22 and 35 on previous screening). Topiramate (100 mg b.i.d or corresponding placebo) was administered for 10 days in each cross-over period. A wash-out period of one week was applied between the two treatment periods.

[2] = system: voltage-gated sodium electrogenesis; settings: specific action on voltage-gated sodium electrogenesis in certain areas of the nervous system; cited from earlier work
[3] = system: glutamate in the hippocampus; settings: in vivo; cited from earlier work
[4] = system: aminohydroxymethylisoxazole propionic acid (AMPA) glutamate receptor subtype site; settings: rat hippocampal pyramidal neurones; effect at AMPA site; cited from earlier work
carbonic anhydrase = settings: cited from earlier work
[5] = system: N-methyl-D-aspartate (NMDA) mediated glutamate receptor subtype site; settings: cited from earlier work

Compound: CC1(C)O[C@@H]2[C@@H](CO[C@@]3(COS(N)(=O)=O)OC(C)(C)O[C@@H]23)O1 [topiramate, 2,3:4,5-di-o-isopropylidene-β-D-fructopyranose sulfamate]
- Blood pressure ([1]; between the two study nights (topiramate vs placebo)): did not differ
- Side effects ([1]; during the study period): No side effects were reported
- A/H index during topiramate ([1]; first patient (placebo 24), 100 mg b.i.d for 10 days): 9
- A/H index during topiramate ([1]; second patient (placebo 33), 100 mg b.i.d for 10 days): 6
- Daytime sleepiness ([1]; spontaneous reporting by both patients, 100 mg b.i.d for 10 days): markedly reduced
- Cellular activity / cellular bursting activity [2]: dose-dependently reduce cellular activity
- Abnormally high concentrations of glutamate in the hippocampus [3]: reduce
- Kainate-elicited excitatory response [4]: blocked
- Inhibition of the enzyme carbonic anhydrase (carbonic anhydrase): weakly inhibit
- Effect at the NMDA mediated glutamate receptor subtype site [5]: had no effect
